Article PMC4628094, “In Vitro Assessment of Uptake and Lysosomal Sequestration of Respiratory Drugs in Alveolar Macrophage Cell Line NR8383” (Pharmaceutical Research, 2015)
Where a name gives a salt, the structure may show the parent alone. Read-outs that look alike come from different tables or passages of the source.

Key:
[1] = test system: Liver tissue slices from male Wistar rats; parameters: method as in ref (5) (a number printed in a supplementary file, which may have a reference list of its own: not looked up in the article's list); conditions: NH4Cl 20 mM, drug 5 µM, 60 min, ref (5); cited from earlier work
[2] = test system: Liver tissue slices from male Wistar rats; parameters: method as in ref (8) (a number printed in a supplementary file, which may have a reference list of its own: not looked up in the article's list); conditions: NH4Cl 20 mM, drug 5 µM, 60 min, ref (8); cited from earlier work
[3] = test system: Lung tissue slices from male Wistar rats; parameters: method as in ref (14) (a number printed in a supplementary file, which may have a reference list of its own: not looked up in the article's list); conditions: monensin 10 µM, drug 5 µM, 60 min, ref (14); cited from earlier work
[4] = test system: Liver tissue slices from male Wistar rats; parameters: method as in ref (9) (a number printed in a supplementary file, which may have a reference list of its own: not looked up in the article's list); conditions: NH4Cl 20 mM, drug 5 µM, 60 min, ref (9); cited from earlier work
[5] = test system: Lung tissue slices from male Wistar rats; parameters: method as in ref (9) (a number printed in a supplementary file, which may have a reference list of its own: not looked up in the article's list); conditions: NH4Cl 20 mM, drug 5 µM, 60 min, ref (9); cited from earlier work
[6] = test system: Lung tissue slices from male Wistar rats; parameters: method as in ref (8) (a number printed in a supplementary file, which may have a reference list of its own: not looked up in the article's list); conditions: NH4Cl 20 mM, drug 5 µM, 60 min, ref (8); cited from earlier work
[7] = test system: Brain slices from male Wistar rats; parameters: method as in ref (10) (a number printed in a supplementary file, which may have a reference list of its own: not looked up in the article's list); conditions: drug 5 µM, 60 min, ref (10), cited from earlier work; for Reduction in total uptake (%): NH4Cl 20 mM; for Reduction of total uptake (%): monensin 10 µM
[8] = test system: Lung tissue slices from male Wistar rats; parameters: method as in ref (5) (a number printed in a supplementary file, which may have a reference list of its own: not looked up in the article's list); conditions: NH4Cl 20 mM, drug 5 µM, 60 min, ref (5); cited from earlier work
[9] = test system: Liver tissue slices from male Wistar rats; parameters: method as in ref (14) (a number printed in a supplementary file, which may have a reference list of its own: not looked up in the article's list); conditions: monensin 10 µM, drug 5 µM, 60 min, ref (14); cited from earlier work
[10] = test system: Lung tissue slices from male Wistar rats; parameters: method as in ref (7) (a number printed in a supplementary file, which may have a reference list of its own: not looked up in the article's list); conditions: NH4Cl 3 mg/min/kg (i.v. infusion), drug 3.2 mg/kg (i.v. injection), 360 min, ref (7); cited from earlier work
[11] = test system: Lung granule fraction containing lysosomes from male Wistar rats; parameters: method as in ref (6) (a number printed in a supplementary file, which may have a reference list of its own: not looked up in the article's list); conditions: NH4Cl 10 mM, drug 1 µM, 10 min; ref (6); cited from earlier work
[12] = test system: Liver tissue slices from male Wistar rats; parameters: method as in ref (7) (a number printed in a supplementary file, which may have a reference list of its own: not looked up in the article's list); conditions: NH4Cl 3 mg/min/kg (i.v. infusion), drug 3.2 mg/kg (i.v. injection), 360 min, ref (7); cited from earlier work
[13] = test system: Lung tissue slices from male Sprague-Dawley rats; conditions: desipramine, diazepam 5 µM, chloroquine, thiopental 10 µM, 60 min, ref (3), cited from earlier work; for Reduction in total uptake (%): NH4Cl 20 mM; for Reduction of total uptake (%): monensin 10 µM
[14] = test system: Liver tissue slices from male Sprague-Dawley rats; parameters: method as in ref (3) (a number printed in a supplementary file, which may have a reference list of its own: not looked up in the article's list); conditions: desipramine 5 µM, chloroquine 10 µM, 60 min, ref (3), cited from earlier work; for Reduction in total uptake (%): NH4Cl 20 mM
[15] = test system: Hepatocytes isolated from male Wistar rats; conditions: NH4Cl 10 mM, 15 min, ref (2), cited from earlier work
NR8383 cells [16] = conditions: high drug concentrations (50 and 100 μM per method), not stated at the place
[17] = Physicochemical properties, experimental literature values (Table I); conditions: classification in Table I
[18] = Accumulation (Kp) in NR8383 over a concentration range, two-site binding model; conditions: rat, control
NR8383 cells [19] = experiment: as above; conditions: apparent saturable uptake equilibrium constant, two-site binding model, control
[20] = Lysosomal sequestration studies in NR8383 with NH4Cl, monensin and nigericin; conditions: rat; for Kp at 10 min, 5 μM: NR8383, 5 μM drug; for Kp at 10 min, 20 µM: NR8383, 20 µM drug
NR8383 cells [21] = experiment: as above; conditions: for % Reduction in Kp by NH4Cl: NH4Cl 20 mM
[22] = Drug uptake in NR8383 at 37 and 4°C (CLuptake, CLdiff, Kp); conditions: rat
NR8383 cells [23] = experiment: as above; conditions: NR8383, 5 μM; CLdiff relative to CLuptake
[24] = experimental value; ref ([21])-([30]) per drug, Table I; cited from earlier work
[25] = test system: Mouse peritoneal macrophages; parameters: method as in ref (1) (a number printed in a supplementary file, which may have a reference list of its own: not looked up in the article's list); conditions: drug 50 µM, 120 min, ref (1), cited from earlier work
NR8383 cells [26] = experiment: LysoTracker Red (LTR) confocal assessment of lysosomal sequestration in NR8383; type: cell-based, rat; conditions: NH4Cl 20 mM, monensin 5 μM, nigericin 10 μM with 200 nM LTR

CN(C)CCC=C1c2ccccc2CCc2ccccc21 [Amitriptyline]
Reduction in total uptake (%) [1]: 40%
Reduction in total uptake (%) [2]: 68%
Reduction of total uptake (%) [3]: 70%
Reduction in total uptake (%) [4]: 67%
Reduction in total uptake (%) [5]: 47%
Reduction in total uptake (%) [6]: 56%
Reduction in total uptake (%) [7]: 32%
Reduction of total uptake (%) [7]: 31%
Reduction in total uptake (%) [8]: 63%
Reduction of total uptake (%) [9]: 48%

OC(CCN1CCCCC1)(c1ccccc1)C1CC2C=CC1C2 (stereo not shown) [Biperiden]
Reduction in total uptake (%) [10]: 77%
Reduction in total uptake (%) [11]: 56%
Reduction in total uptake (%) [12]: 2.5%

NC(=O)N1c2ccccc2C=Cc2ccccc21 [Carbamazepine]
Reduction in total uptake (%) [1]: 16.1%
Reduction of total uptake (%) [3]: 5.4%
Reduction in total uptake (%) [8]: 5.4%
Reduction of total uptake (%) [9]: 0%

CCN(CC)CCCC(C)Nc1ccnc2cc(Cl)ccc12 (stereo not shown) [Chloroquine]
Reduction in total uptake (%) [13]: 66%
Reduction of total uptake (%) [13]: 73%
Reduction in total uptake (%) [11]: 87%
Reduction in total uptake (%) [14]: 53%
Reduction of total uptake (%) ([14]; monensin 10 µM): 44%
Reduction in total uptake (%) ([15]; drug 10 µM): 93%
Reduction in total uptake (%) ([15]; drug 100 µM): 77%

CNCCCN1c2ccccc2CCc2ccccc21 [Desipramine]
Reduction in total uptake (%) [13]: 23%
Reduction of total uptake (%) [13]: 12%
Reduction in total uptake (%) [14]: 15%

COc1ccc(CC(C)NCC(O)c2ccc(O)c(NC=O)c2)cc1 (stereo not shown) [Formoterol]
cytotoxicity (LDH) compared to positive control (NR8383 cells [16]): less than 5%
Acid–base Property [17]: Base
Kp at 10 min ([18]; Kp,max, sum of Kp,U1,max and Kp,min): 69
Kp at 10 min ([18]; Kp,min, NR8383, 37°C, concentration range, two-site binding model): 10 ± 0.92
KU1 (NR8383 cells [19]): 1.54 ± 0.49 µM
Kp at 10 min, 5 μM ([20]; Kp + NH4Cl, 20 mM NH4Cl co-incubated, 10 min): 15.5 ± 1.16
Kp at 10 min, 20 µM ([20]; Kp + NH4Cl, 20 mM NH4Cl): 19.2 ± 4.13
Kp at 10 min, 5 μM ([20]; Kp Control, control): 20.8 ± 3.6
Kp at 10 min, 20 µM ([20]; Kp Control, control): 26.5 ± 6.54
% Reduction in Kp by NH4Cl (NR8383 cells [21]; NR8383, 5 μM drug): 24 ± 9.0%
% Reduction in Kp by Monensin (NR8383 cells [21]; NR8383, 5 μM drug, monensin 5 μM, 5 min): 40 ± 7.5%
% Reduction in Kp by Nigericin (NR8383 cells [21]; NR8383, 5 μM drug, nigericin 10 μM, 5 min): 27 ± 5.1 %
% Reduction in Kp by NH4Cl (NR8383 cells [21]; NR8383, 20 µM drug): 27 ± 8.1 %
% Reduction in CLuptake by Monensin (5 µM) (NR8383 cells [21]; NR8383, at 5 µM drug): 41 ± 5.6%
% Reduction in CLuptake by NH4Cl (20 mM) (NR8383 cells [21]; NR8383, at 5 µM drug): 25 ± 14%
% Reduction in CLuptake by Nigericin (10 µM) (NR8383 cells [21]; NR8383, at 5 µM drug): 19 ± 12%
% Reduction in CLuptake by NH4Cl (20 mM) (NR8383 cells [21]; NR8383, at 20 µM drug): 27 ± 13%
reduction in Kp in the presence of chemical agents (summary in Discussion) (NR8383 cells [21]; NR8383, NH4Cl, monensin, nigericin): 20–40%
Kp at 10 min, 5 μM [22]: 24.5 ± 8.71
Contribution of passive (%) (NR8383 cells [23]): 3.71%
LogD7.4 [24]: 2.60

CN [Methylamine]
Reduction in total uptake (%) ([25]; NH4Cl 10 mM): 54%
Reduction of total uptake (%) ([25]; nigericin 5 µg/ml (~7 µM)): 49%

CN(C)CCCN1c2ccccc2Sc2ccccc21 [Promazine]
Reduction in total uptake (%) [1]: 59%
Reduction of total uptake (%) [3]: 71%
Reduction in total uptake (%) [7]: 20%
Reduction of total uptake (%) [7]: 35%
Reduction in total uptake (%) [8]: 46.8%
Reduction of total uptake (%) [9]: 86%

OC(CCN1CCCCC1)(c1ccccc1)C1CCCCC1 (stereo not shown) [Trihexyphenidyl]
Reduction in total uptake (%) [10]: 68%
Reduction in total uptake (%) [11]: 54%
Reduction in total uptake (%) [12]: 11%

CC[C@@]1([C@@H]2O[C@@H]([C@H]3O[C@@](O)(CO)[C@H](C)C[C@@H]3C)C[C@@H]2C)CC[C@H]([C@]2(C)CC[C@]3(C[C@H](O)[C@@H](C)[C@@H]([C@@H](C)[C@@H](OC)[C@H](C)C(=O)O)O3)O2)O1 [monensin, monensin sodium salt]
reduced LTR fluorescent signal (NR8383 cells [26]): up to 85%

CO[C@@H]1C[C@@H](C[C@H]2CC[C@H](C)[C@H]([C@@H](C)C(=O)O)O2)O[C@]2(O[C@](C)([C@H]3CC[C@@](C)([C@@H]4O[C@@H]([C@H]5O[C@@](O)(CO)[C@H](C)C[C@@H]5C)C[C@@H]4C)O3)C[C@H]2C)[C@@H]1C [nigericin, nigericin sodium salt]
reduced LTR fluorescent signal (NR8383 cells [26]): up to 85%
